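Following 48 hours of exposure in 96-well plates, responses at five concentrations were used to interpolate endpoints linearly. Definition used: TGI = concentration required for complete inhibition of growth.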
Assays:
Assay in all cases: NCI-60 cell line screen, 48 h
UACC-257 melanoma = system: UACC-257 melanoma
A549 NSCLC = system: A549 NSCLC
A498 renal = system: A498 renal
KM12 colon = system: KM12 colon
MOLT-4 leukemia = system: MOLT-4 leukemia
BT-549 breast = system: BT-549 breast
HS 578T breast = system: HS 578T breast
SN12C renal = system: SN12C renal
NCI-H23 lung = system: NCI-H23 lung
NCI-H226 lung = system: NCI-H226 lung
DU-145 prostate = system: DU-145 prostate
K-562 leukemia = system: K-562 leukemia
SK-OV-3 ovarian = system: SK-OV-3 ovarian
SW-620 colon = system: SW-620 colon
NCI/ADR-RES ovarian = system: NCI/ADR-RES ovarian
ACHN renal = system: ACHN renal
SF-268 CNS = system: SF-268 CNS
SF-539 CNS = system: SF-539 CNS
TK-10 renal = system: TK-10 renal
OVCAR-8 ovarian = system: OVCAR-8 ovarian
OVCAR-3 ovarian = system: OVCAR-3 ovarian
786-0 renal = system: 786-0 renal
SK-MEL-2 melanoma = system: SK-MEL-2 melanoma
MDA-MB-435 = system: MDA-MB-435
MCF7 breast = system: MCF7 breast
COLO 205 colon = system: COLO 205 colon
HT29 colon = system: HT29 colon
SNB-19 CNS = system: SNB-19 CNS
SR leukemia = system: SR leukemia
SK-MEL-5 melanoma = system: SK-MEL-5 melanoma
T-47D breast = system: T-47D breast
EKVX NSCLC = system: EKVX NSCLC
CAKI-1 renal = system: CAKI-1 renal
U251 CNS = system: U251 CNS
MDA-MB-231 breast = system: MDA-MB-231 breast
OVCAR-5 ovarian = system: OVCAR-5 ovarian
OVCAR-4 ovarian = system: OVCAR-4 ovarian
HCC-2998 colon = system: HCC-2998 colon
HCT-116 colon = system: HCT-116 colon
SNB-75 CNS = system: SNB-75 CNS
HOP-92 NSCLC = system: HOP-92 NSCLC
UO-31 renal = system: UO-31 renal
SF-295 CNS = system: SF-295 CNS
LOX IMVI melanoma = system: LOX IMVI melanoma
HCT-15 colon = system: HCT-15 colon
UACC-62 melanoma = system: UACC-62 melanoma
IGROV1 ovarian = system: IGROV1 ovarian
CCRF-CEM leukemia = system: CCRF-CEM leukemia
MALME-3M melanoma = system: MALME-3M melanoma
MDA-N = system: MDA-N
NCI-H522 lung = system: NCI-H522 lung
M14 melanoma = system: M14 melanoma
NCI-H460 lung = system: NCI-H460 lung
HOP-62 NSCLC = system: HOP-62 NSCLC
RXF 393 renal = system: RXF 393 renal
HL-60(TB) leukemia = system: HL-60(TB) leukemia
PC-3 prostate = system: PC-3 prostate

**Q.** Which results are given for `C=CCN1C[C@H](C)N([C@H](c2ccc(C(=O)NC(CC)CC)cc2)c2cccc(OC)c2)C[C@H]1C`?
**A.** TGI (UACC-257 melanoma): 70.7 µM; TGI (A549 NSCLC): > 100 µM; TGI (A498 renal): 63.3 µM; TGI (KM12 colon): > 100 µM; TGI (MOLT-4 leukemia): > 100 µM; TGI (BT-549 breast): 99.6 µM; TGI (HS 578T breast): > 100 µM; TGI (SN12C renal): > 100 µM; TGI (NCI-H23 lung): > 100 µM; TGI (NCI-H226 lung): > 100 µM; TGI (DU-145 prostate): > 100 µM; TGI (K-562 leukemia): > 100 µM; TGI (SK-OV-3 ovarian): > 100 µM; TGI (SW-620 colon): > 100 µM; TGI (NCI/ADR-RES ovarian): > 100 µM; TGI (ACHN renal): > 100 µM; TGI (SF-268 CNS): > 100 µM; TGI (SF-539 CNS): 43.4 µM; TGI (TK-10 renal): > 100 µM; TGI (OVCAR-8 ovarian): > 100 µM; TGI (OVCAR-3 ovarian): > 100 µM; TGI (786-0 renal): > 100 µM; TGI (SK-MEL-2 melanoma): 46.1 µM; TGI (MDA-MB-435): > 100 µM; TGI (MCF7 breast): > 100 µM; TGI (COLO 205 colon): 32.5 µM; TGI (HT29 colon): 61.1 µM; TGI (SNB-19 CNS): > 100 µM; TGI (SR leukemia): 44.4 µM; TGI (SK-MEL-5 melanoma): 32.4 µM; TGI (T-47D breast): > 100 µM; TGI (EKVX NSCLC): > 100 µM; TGI (CAKI-1 renal): 65.1 µM; TGI (U251 CNS): > 100 µM; TGI (MDA-MB-231 breast): 75.6 µM; TGI (OVCAR-5 ovarian): > 100 µM; TGI (OVCAR-4 ovarian): > 100 µM; TGI (HCC-2998 colon): > 100 µM; TGI (HCT-116 colon): > 100 µM; TGI (SNB-75 CNS): > 100 µM; TGI (HOP-92 NSCLC): > 100 µM; TGI (UO-31 renal): 52.7 µM; TGI (SF-295 CNS): > 100 µM; TGI (LOX IMVI melanoma): 58.6 µM; TGI (HCT-15 colon): > 100 µM; TGI (UACC-62 melanoma): 51.1 µM; TGI (IGROV1 ovarian): > 100 µM; TGI (CCRF-CEM leukemia): > 100 µM; TGI (MALME-3M melanoma): 43.5 µM; TGI (MDA-N): > 100 µM; TGI (NCI-H522 lung): 34.7 µM; TGI (M14 melanoma): 34.4 µM; TGI (NCI-H460 lung): > 100 µM; TGI (HOP-62 NSCLC): > 100 µM; TGI (RXF 393 renal): > 100 µM; TGI (HL-60(TB) leukemia): 32.4 µM; TGI (PC-3 prostate): > 100 µM

From PubChem BioAssay (NCI)
